*1 amine or outer side, *2 acyl side, *3 side chain or, on linkers, in order; H or OH if unused. Where a SMILES comes first, the peptide text is derived from it. Side-chain parts run from the residue outwards. [ ]: non-standard residue; d: D form. The star is where a group is joined. Heptadecanoyl = CCCCCCCCCCCCCCCCC(=O)*; γGlu = O=C(O)[C@H](CCC(=O)[*:2])N[*:1]; 1Nal = N[C@@H](Cc1cccc2ccccc12)C(=O)O; Stearoyl = CCCCCCCCCCCCCCCCCC(=O)*; Palmitoyl = CCCCCCCCCCCCCCCC(=O)*; Nle = CCCC[C@H](N)C(=O)O; AEEA = NCCOCCOCC(=O)O; Aib = CC(C)(N)C(=O)O

This assay concerns the target T1, RXFP1 (Homo sapiens, UniProt Q9HBX9).
T1 construct: OVCAR5 cells expressing endogenous RXFP1; endogenous in cells; host or cells: OVCAR5 cells
T1 sequence (Q9HBX9 1-757): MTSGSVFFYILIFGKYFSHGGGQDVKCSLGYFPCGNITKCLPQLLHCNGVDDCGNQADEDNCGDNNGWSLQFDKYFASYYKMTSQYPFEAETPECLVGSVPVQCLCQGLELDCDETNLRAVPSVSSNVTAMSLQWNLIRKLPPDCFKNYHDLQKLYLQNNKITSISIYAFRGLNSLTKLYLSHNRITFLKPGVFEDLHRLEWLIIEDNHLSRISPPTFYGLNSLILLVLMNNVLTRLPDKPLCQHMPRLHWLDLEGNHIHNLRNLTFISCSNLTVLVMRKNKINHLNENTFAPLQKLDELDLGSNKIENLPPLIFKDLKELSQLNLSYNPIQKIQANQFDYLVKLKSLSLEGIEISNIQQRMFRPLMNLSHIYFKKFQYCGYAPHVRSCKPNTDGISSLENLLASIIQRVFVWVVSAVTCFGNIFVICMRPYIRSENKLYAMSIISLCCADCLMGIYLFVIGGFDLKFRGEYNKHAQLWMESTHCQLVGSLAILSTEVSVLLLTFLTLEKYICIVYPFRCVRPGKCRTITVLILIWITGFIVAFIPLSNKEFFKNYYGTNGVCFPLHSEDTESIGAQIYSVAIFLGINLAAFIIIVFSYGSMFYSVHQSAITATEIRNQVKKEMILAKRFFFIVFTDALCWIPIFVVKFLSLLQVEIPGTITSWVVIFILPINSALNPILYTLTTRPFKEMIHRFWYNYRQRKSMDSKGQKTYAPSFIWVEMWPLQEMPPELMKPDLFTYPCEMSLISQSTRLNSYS
Description: OVCAR5 cAMP assay (HTRF), RXFP1 agonist activity. Type of assay: cell-based. Conditions: for EC50: OVCAR5 cells, cAMP HTRF, read-out: EC50 (nM), OVCAR 5 cells (cAMP); for Emax: OVCAR-5, maximal cAMP relative to H2-relaxin maximum (100%), read-out: EMax, OVCAR 5 cells (cAMP). The gist of the method: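 cAMP accumulation readout: after 1 mM IBMX for 40 min, endogenous-RXFP1 OVCAR5 cells got rising peptide concentrations without FCS, 30 min, 37° C, then lysis with HTRF cAMP reagents. Nonlinear regression gave EC50; Emax expressed relative to H2-relaxin maximum, same occasion.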

In the case of `CCCCCCCCCCCCCCCCCC(=O)N[C@@H](CCC(=O)N[C@@H](CCC(=O)N[C@@H](CCC(=O)NCCOCCOCC(=O)NCCOCCOCC(=O)NCCOCCOCC(=O)NCCCC[C@H](NC(=O)[C@H](CC(C)C)NC(=O)[C@H](CCCCN)NC(=O)[C@H](CCCNC(=N)N)NC(=O)C(C)(C)NC(=O)[C@H](CO)NC(=O)[C@H](Cc1c[nH]c2ccccc12)NC(=O)[C@@H](NC(=O)[C@H](CO)NC(=O)[C@H](CCCC)NC(=O)CNC(=O)[C@H](CCC(=O)O)NC(=O)C(C)(C)NC(=O)C(C)(C)NC(=O)[C@@H](NC(=O)[C@H](CCCCNC(C)=O)NC(=O)[C@H](C)NC(=O)[C@H](CCCNC(=N)N)NC(=O)[C@@H](NC(=O)[C@H](CCCCN)NC(=O)[C@H](CCC(=O)O)NC(=O)[C@H](CCCNC(=N)N)NC(=O)CNC(=O)[C@H](CCC(=O)O)NC(=O)[C@H](CC(C)C)NC(C)=O)C(C)C)[C@@H](C)CC)[C@@H](C)O)C(N)=O)C(=O)O)C(=O)O)C(=O)O` [compound 86] (Ac-LEGREKVRAK(Ac)I[Aib][Aib]EG[Nle]STWS[Aib]RKLK([AEEA-AEEA-AEEA-γGlu-γGlu-γGlu-Stearoyl])-NH2), the EC50 was found to be 0.69 nM and the Emax was 79%. Turning to `CCCCCCCCCCCCCCCCCC(=O)N[C@@H](CCC(=O)N[C@@H](CCC(=O)N[C@@H](CCC(=O)NCCOCCOCC(=O)NCCOCCOCC(=O)NCCOCCOCC(=O)NCCCC[C@H](NC(=O)[C@H](CCCCN)NC(=O)[C@H](CCCNC(=N)N)NC(=O)C(C)(C)NC(=O)[C@H](CO)NC(=O)[C@H](Cc1cccc2ccccc12)NC(=O)[C@@H](NC(=O)[C@H](CO)NC(=O)[C@H](CCCC)NC(=O)CNC(=O)[C@H](CCC(=O)O)NC(=O)C(C)(C)NC(=O)C(C)(C)NC(=O)[C@@H](NC(=O)[C@H](CCCCNC(C)=O)NC(=O)C(C)(C)NC(=O)[C@H](CCCNC(=N)N)NC(=O)[C@@H](NC(=O)[C@H](CCCCN)NC(=O)[C@H](CCC(=O)O)NC(=O)[C@H](CCCNC(=N)N)NC(=O)CNC(=O)[C@H](CCC(=O)O)NC(=O)[C@H](CC(C)C)NC(C)=O)C(C)C)[C@@H](C)CC)[C@@H](C)O)C(N)=O)C(=O)O)C(=O)O)C(=O)O` [compound 80] (Ac-LEGREKVR[Aib]K(Ac)I[Aib][Aib]EG[Nle]ST[1Nal]S[Aib]RKK([AEEA-AEEA-AEEA-γGlu-γGlu-γGlu-Stearoyl])-NH2), the Emax came to 68%. With `CCCCCCCCCCCCCCCC(=O)N[C@@H](CCC(=O)N[C@@H](CCC(=O)N[C@@H](CCC(=O)NCCCC[C@H](NC(=O)COCCOCCNC(=O)[C@H](CCCCN)NC(=O)[C@H](CCCNC(=N)N)NC(=O)C(C)(C)NC(=O)[C@H](CO)NC(=O)[C@H](Cc1c[nH]c2ccccc12)NC(=O)[C@@H](NC(=O)[C@H](CO)NC(=O)[C@H](CCCC)NC(=O)CNC(=O)[C@H](CCC(=O)O)NC(=O)C(C)(C)NC(=O)C(C)(C)NC(=O)[C@@H](NC(=O)[C@H](CCC(N)=O)NC(=O)[C@H](C)NC(=O)[C@H](CCCNC(=N)N)NC(=O)[C@@H](NC(=O)[C@H](CCCCN)NC(=O)[C@H](CCC(=O)O)NC(=O)[C@H](CCCNC(=N)N)NC(=O)CNC(=O)[C@H](CCC(=O)O)NC(=O)[C@H](CC(C)C)NC(C)=O)C(C)C)[C@@H](C)CC)[C@@H](C)O)C(N)=O)C(=O)O)C(=O)O)C(=O)O` [compound 10] (Ac-LEGREKVRAQI[Aib][Aib]EG[Nle]STWS[Aib]RK[AEEA]K([γGlu-γGlu-γGlu-Palmitoyl])-NH2), the Emax stood at 96%. As to `CCCCCCCCCCCCCCCCCC(=O)N[C@@H](CCC(=O)N[C@@H](CCC(=O)N[C@@H](CCC(=O)NCCOCCOCC(=O)NCCOCCOCC(=O)NCCCC[C@H](NC(=O)[C@H](CCCCN)NC(=O)[C@H](CCCCNC(C)=O)NC(=O)[C@H](CCCNC(=N)N)NC(=O)C(C)(C)NC(=O)[C@H](CO)NC(=O)[C@H](Cc1c[nH]c2ccccc12)NC(=O)[C@@H](NC(=O)[C@H](CO)NC(=O)[C@H](CCCC)NC(=O)CNC(=O)[C@H](CCC(=O)O)NC(=O)C(C)(C)NC(=O)C(C)(C)NC(=O)[C@@H](NC(=O)[C@H](CCCCNC(C)=O)NC(=O)[C@H](C)NC(=O)[C@H](CCCNC(=N)N)NC(=O)[C@@H](NC(=O)[C@H](CCCCN)NC(=O)[C@H](CCC(=O)O)NC(=O)[C@H](CCCNC(=N)N)NC(=O)CNC(=O)[C@H](CCC(=O)O)NC(=O)[C@H](CC(C)C)NC(C)=O)C(C)C)[C@@H](C)CC)[C@@H](C)O)C(N)=O)C(=O)O)C(=O)O)C(=O)O` [compound 72] (Ac-LEGREKVRAK(Ac)I[Aib][Aib]EG[Nle]STWS[Aib]RK(Ac)KK([AEEA-AEEA-γGlu-γGlu-γGlu-Stearoyl])-NH2), the EC50 was 0.17 nM and the Emax came to 93%. On to `CCCCCCCCCCCCCCCC(=O)N[C@@H](CCC(=O)N[C@@H](CCC(=O)N[C@@H](CCC(=O)NCCOCCOCC(=O)NCCOCCOCC(=O)NCCCC[C@H](NC(=O)[C@H](CCCCN)NC(=O)[C@H](CCCCN)NC(=O)[C@H](CCCNC(=N)N)NC(=O)C(C)(C)NC(=O)[C@H](CO)NC(=O)[C@H](Cc1c[nH]c2ccccc12)NC(=O)[C@@H](NC(=O)[C@H](CO)NC(=O)[C@H](CCCCNC(C)=O)NC(=O)CNC(=O)[C@H](CCC(=O)O)NC(=O)C(C)(C)NC(=O)C(C)(C)NC(=O)[C@@H](NC(=O)[C@H](CCCCNC(C)=O)NC(=O)[C@H](C)NC(=O)[C@H](CCCNC(=N)N)NC(=O)[C@@H](NC(=O)[C@H](CCCCN)NC(=O)[C@H](CCC(=O)O)NC(=O)[C@H](CCCNC(=N)N)NC(=O)CNC(=O)[C@H](CCC(=O)O)NC(=O)[C@H](CC(C)C)NC(C)=O)C(C)C)[C@@H](C)CC)[C@@H](C)O)C(N)=O)C(=O)O)C(=O)O)C(=O)O` [compound 61] (Ac-LEGREKVRAK(Ac)I[Aib][Aib]EGK(Ac)STWS[Aib]RKKK([AEEA-AEEA-γGlu-γGlu-γGlu-Palmitoyl])-NH2), for which the EC50 came out at 0.17 nM and the Emax worked out at 93%. On to `CCCCCCCCCCCCCCCCC(=O)N[C@@H](CCC(=O)N[C@@H](CCC(=O)N[C@@H](CCC(=O)NCCOCCOCC(=O)NCCOCCOCC(=O)NCCOCCOCC(=O)NCCCC[C@H](NC(=O)[C@H](CCCCNC(C)=O)NC(=O)[C@H](CCCCN)NC(=O)[C@H](CCCNC(=N)N)NC(=O)C(C)(C)NC(=O)[C@H](CO)NC(=O)[C@H](Cc1c[nH]c2ccccc12)NC(=O)[C@@H](NC(=O)[C@H](CO)NC(=O)[C@H](CCCC)NC(=O)CNC(=O)[C@H](CCC(=O)O)NC(=O)C(C)(C)NC(=O)C(C)(C)NC(=O)[C@@H](NC(=O)[C@H](CCCCNC(C)=O)NC(=O)[C@H](C)NC(=O)[C@H](CCCNC(=N)N)NC(=O)[C@@H](NC(=O)[C@H](CCCCN)NC(=O)[C@H](CCC(=O)O)NC(=O)[C@H](CCCNC(=N)N)NC(=O)CNC(=O)[C@H](CCC(=O)O)NC(=O)[C@H](CC(C)C)NC(C)=O)C(C)C)[C@@H](C)CC)[C@@H](C)O)C(N)=O)C(=O)O)C(=O)O)C(=O)O` [compound 164] (Ac-LEGREKVRAK(Ac)I[Aib][Aib]EG[Nle]STWS[Aib]RKK(Ac)K([AEEA-AEEA-AEEA-γGlu-γGlu-γGlu-Heptadecanoyl])-NH2), for which the Emax stood at 93%.

As a reminder, the EC50 is the concentration that produces a half-maximal response. As a reminder, the Emax is the maximal effect, on the per cent scale that the assay sets.
